# Earlier results, collected in patent US20190054079A1, “ENHANCEMENT OF IMPAIRED MOTOR AND MENTAL FUNCTIONS, USING DEXTROMETHORPHAN AND OXIDASE ENZYME INHIBITOR” (Avanir Pharmaceuticals, Inc., priority 2004, published 2019).
# What was measured:
# [1] = test system: NMDA receptors
# [2] = test system: sigma receptors
# [3] = test system: patients suffering from neurological disorders (such as ALS); conditions: DM alone, late 1980's and early 1990's
# [4] = biological target: P450-2D6 enzyme (Homo sapiens, UniProt P10635); conditions: among known drugs in Inaba et al 1985 and 1986
# P450-2D6 enzyme, sequence (P10635 whole entry): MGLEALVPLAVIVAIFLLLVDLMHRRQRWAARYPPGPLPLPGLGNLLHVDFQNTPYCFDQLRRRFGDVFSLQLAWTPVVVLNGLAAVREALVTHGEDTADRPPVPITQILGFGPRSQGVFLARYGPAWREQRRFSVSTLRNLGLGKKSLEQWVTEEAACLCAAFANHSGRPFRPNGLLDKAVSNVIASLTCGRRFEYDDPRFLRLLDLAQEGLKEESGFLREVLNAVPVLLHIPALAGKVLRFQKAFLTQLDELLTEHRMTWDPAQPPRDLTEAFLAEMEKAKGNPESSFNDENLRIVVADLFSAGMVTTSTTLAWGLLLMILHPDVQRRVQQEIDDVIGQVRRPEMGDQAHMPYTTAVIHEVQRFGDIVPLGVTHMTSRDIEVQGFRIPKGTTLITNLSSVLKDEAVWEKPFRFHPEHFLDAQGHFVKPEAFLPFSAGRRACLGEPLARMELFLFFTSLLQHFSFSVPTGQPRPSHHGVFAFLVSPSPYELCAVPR
SMILES,activity at NMDA receptors [1],activity at sigma receptors [2],benefit in slowing progression of neurological diseases [3],potency of P450-2D6 inhibition [4]
"COc1ccc2c(c1)[C@@]13CCCC[C@H]1[C@@H](C2)N(C)CC3 [Dextromethorphan, (+)-3-methoxy-N-methylmorphinan]",mildly suppresses activity,stimulates activity,did not show enough benefits,–
C=C[C@H]1C[N@@]2CC[C@H]1C[C@@H]2[C@@H](O)c1ccnc2ccc(OC)cc12 [quinidine],–,–,–,most potent P450-2D6 inhibitor
